Data reported in ChEMBL document CHEMBL1201862, “PubChem BioAssay data set” (2004).
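Protocol summary: plate cells (96-well), add compound at 5 concentrations, incubate 48 h, interpolate endpoints linearly. GI50: concentration for 50% inhibition of growth.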 Calls of active or inactive are those of the source. Rule as the data show it: active = GI50 up to about 1.1 µM and inactive = higher.

What was measured:
Assay in all cases: DTP human tumour cell line panel, 48 h
DMS-114 = system: DMS-114
A549 = system: A549
SN12C = system: SN12C
SK-MEL-5 = system: SK-MEL-5
HCT-15 = system: HCT-15
LOX IMVI = system: LOX IMVI
KM12 = system: KM12
ACHN = system: ACHN
SW-620 = system: SW-620
SNB-78 = system: SNB-78
UO-31 = system: UO-31
SNB-19 = system: SNB-19
786-0 = system: 786-0
SK-MEL-2 = system: SK-MEL-2
HCC 2998 = system: HCC 2998
HL-60 = system: HL-60
NCI-H522 = system: NCI-H522
OVCAR-3 = system: OVCAR-3
HOP-92 = system: HOP-92
SF-539 = system: SF-539
RXF 393 = system: RXF 393
XF498 = system: XF498
SK-OV-3 = system: SK-OV-3
TK-10 = system: TK-10
M14 = system: M14
M19-MEL = system: M19-MEL
CAKI-1 = system: CAKI-1
NCI-H226 = system: NCI-H226
UACC-62 = system: UACC-62
HT-29 = system: HT-29
OVCAR-5 = system: OVCAR-5
COLO 205 = system: COLO 205
SF-268 = system: SF-268
SF-295 = system: SF-295
Malme-3M = system: Malme-3M
SK-MEL-28 = system: SK-MEL-28
RPMI-8226 = system: RPMI-8226
MOLT-4 = system: MOLT-4
LXFL 529 = system: LXFL 529
K562 = system: K562
KM-20L2 = system: KM-20L2
OVCAR-4 = system: OVCAR-4
A498 = system: A498
EKVX = system: EKVX
NCI-H23 = system: NCI-H23
IGROV-1 = system: IGROV-1
DLD-1 = system: DLD-1
OVCAR-8 = system: OVCAR-8
CCRF-CEM = system: CCRF-CEM
UACC-257 = system: UACC-257
NCI-H460 = system: NCI-H460
DMS-273 = system: DMS-273
SNB-75 = system: SNB-75
HCT-116 = system: HCT-116
HOP-62 = system: HOP-62
SR = system: SR
U-251 = system: U-251

Measured: GI50

CC1(c2ccc(F)cc2)C2C(=O)NC(=O)C1C(=O)NC2=O (stereo not given)
inactive: DMS-114 > 100 µM | A549 > 100 µM | SN12C > 100 µM | SK-MEL-5 > 100 µM | LOX IMVI > 100 µM | KM12 > 100 µM | ACHN > 100 µM | SW-620 > 100 µM | SNB-78 > 100 µM | UO-31 > 100 µM | SNB-19 > 100 µM | 786-0 > 100 µM | SK-MEL-2 > 100 µM | HCC 2998 > 100 µM | HL-60 > 100 µM | NCI-H522 > 100 µM | OVCAR-3 > 100 µM | HOP-92 > 100 µM | SF-539 > 100 µM | RXF 393 > 100 µM | XF498 > 100 µM | SK-OV-3 > 100 µM | TK-10 > 100 µM | M14 > 100 µM | M19-MEL > 100 µM | CAKI-1 > 100 µM | NCI-H226 > 100 µM | UACC-62 > 100 µM | HT-29 > 100 µM | OVCAR-5 > 100 µM | COLO 205 > 100 µM | SF-268 > 100 µM | SF-295 > 100 µM | Malme-3M > 100 µM | SK-MEL-28 > 100 µM | RPMI-8226 > 100 µM | MOLT-4 > 100 µM | LXFL 529 > 100 µM | K562 > 100 µM | KM-20L2 > 100 µM | OVCAR-4 > 100 µM | A498 > 100 µM | EKVX > 100 µM | NCI-H23 > 100 µM | IGROV-1 > 100 µM | DLD-1 > 100 µM | OVCAR-8 > 100 µM | CCRF-CEM > 100 µM | UACC-257 > 100 µM | NCI-H460 > 100 µM | DMS-273 > 100 µM | SNB-75 > 100 µM
> 100 µM: HCT-15

CC(=O)O[C@]1(C(C)=O)CC[C@H]2[C@@H]3C[C@H](C)C4=CC(=O)C=C[C@]4(C)[C@@]3(F)[C@@H](O)C[C@@]21C [FLUOROMETHOLONE ACETATE]
active: SK-OV-3 < 0.01 µM | OVCAR-5 0.149 µM | CCRF-CEM 0.213 µM
inactive: DMS-114 53.6 µM | A549 43.2 µM | SK-MEL-5 28.9 µM | LOX IMVI 63.5 µM | KM12 > 100 µM | ACHN 56.5 µM | SW-620 53.2 µM | SNB-78 72.6 µM | HCT-116 > 100 µM | UO-31 17.1 µM | SNB-19 > 100 µM | 786-0 > 100 µM | HCC 2998 > 100 µM | HL-60 37.6 µM | NCI-H522 62.1 µM | OVCAR-3 > 100 µM | HOP-92 85.7 µM | SF-539 > 100 µM | RXF 393 23.7 µM | XF498 38.3 µM | TK-10 67 µM | M14 48.3 µM | HOP-62 > 100 µM | SR 24.7 µM | M19-MEL > 100 µM | CAKI-1 96.4 µM | NCI-H226 22.2 µM | UACC-62 23.7 µM | HT-29 56.1 µM | COLO 205 > 100 µM | SF-268 36.2 µM | SF-295 66.7 µM | Malme-3M 24.9 µM | SK-MEL-28 86.3 µM | RPMI-8226 11.9 µM | MOLT-4 25.2 µM | K562 48.1 µM | KM-20L2 > 100 µM | OVCAR-4 27.4 µM | EKVX > 100 µM | U-251 87.7 µM | NCI-H23 63.8 µM | IGROV-1 69.5 µM | DLD-1 94.6 µM | UACC-257 31.1 µM | NCI-H460 76.9 µM | DMS-273 41.7 µM | SNB-75 > 100 µM
19.6 µM: HCT-15
